# According to patent US20090018111A1, “Novel Antimicrobial Medicament” (priority 2004, published 2009):
# Read-outs that look alike come from different tables or passages of the source.
# Legend:
# Experiment in all cases: Sensitivity test (agar dilution)
# [1] = tested on: E. cloacae GN7471; assay type: cell-based, Enterobacter cloacae; conditions: Enterobacter cloacae
# Procedure, shortened: (§1)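 Each strain, cultured overnight at 37° C and adjusted to about 10^6 CFU/ml in BSG, was spotted (about 5 μl) on Mueller Hinton agar with twofold serial drug concentrations. Inhibition defines the MIC.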
# [2] = tested on: K. pneumoniae ATCC10031; assay type: cell-based, Klebsiella pneumoniae; conditions: Klebsiella pneumoniae
# Procedure, shortened: as §1
# [3] = tested on: M. luteus ATCC9341; assay type: cell-based, Micrococcus luteus; conditions: Micrococcus luteus
# Procedure, shortened: as §1
# [4] = tested on: P. aeruginosa IFO3451; assay type: cell-based, Pseudomonas aeruginosa; conditions: Pseudomonas aeruginosa
# Procedure, shortened: as §1
# [5] = tested on: P. aeruginosa TL-2667; assay type: cell-based, Pseudomonas aeruginosa; conditions: Pseudomonas aeruginosa
# Procedure, shortened: as §1
# [6] = tested on: P. aeruginosa TL-2666; assay type: cell-based, Pseudomonas aeruginosa; conditions: Pseudomonas aeruginosa
# Procedure, shortened: as §1
# [7] = tested on: E. faecalis ATCC19433; assay type: cell-based, Enterococcus faecalis; conditions: Enterococcus faecalis
# Procedure, shortened: as §1
# [8] = tested on: P. vulgaris GN7919; assay type: cell-based, Proteus vulgaris; conditions: Proteus vulgaris
# Procedure, shortened: as §1
# [9] = tested on: E. coli NIHJ JC-2; assay type: cell-based, Escherichia coli; conditions: Escherichia coli
# Procedure, shortened: as §1
# [10] = tested on: E. coli ML1410; assay type: cell-based, Escherichia coli; conditions: Escherichia coli
# Procedure, shortened: as §1
# [11] = tested on: Str. pyogenes Cook; assay type: cell-based, Streptococcus pyogenes; conditions: Streptococcus pyogenes
# Procedure, shortened: as §1
# [12] = tested on: S. epidermidis IAM1296; assay type: cell-based, Staphylococcus epidermidis; conditions: Staphylococcus epidermidis
# Procedure, shortened: as §1
# [13] = tested on: S. aureus SP-7928 (homo-MRSA); assay type: cell-based, Staphylococcus aureus; conditions: Staphylococcus aureus, MRSA
# Procedure, shortened: as §1
# [14] = Concomitant (MEPM:SM = 1:1), read-out: MIC
# [15] = Concomitant (MEPM:SM = 1:2), read-out: MIC
# [16] = Concomitant (MEPM:SM = 1:4), read-out: MIC
# [17] = Concomitant drug (MEPM:SM = 2:1), read-out: MIC
compound,measurement,setting,value
"C[C@@H](O)[C@H]1C(=O)N2C(C(=O)O)=C(S[C@@H]3CN[C@H](C(=O)N(C)C)C3)[C@H](C)[C@H]12 [MEPM, meropenem]",MIC,"[1]; GN7471, Concomitant (MEPM:SM = 1:1), read-out: MIC",0.031 µg/mL
same,MIC,"[1]; GN7471, Concomitant (MEPM:SM = 1:2), read-out: MIC",0.031 µg/mL
same,MIC,"[1]; GN7471, Concomitant (MEPM:SM = 1:4), read-out: MIC",0.031 µg/mL
same,MIC,"[1]; GN7471, Concomitant drug (MEPM:SM = 2:1), read-out: MIC",0.031 µg/mL
same,MIC,"[1]; GN7471, alone, read-out: MIC",0.063 µg/mL
same,MIC,"[2]; ATCC10031, Concomitant (MEPM:SM = 1:1), read-out: MIC",≤ 0.016 µg/mL
same,MIC,"[2]; ATCC10031, Concomitant (MEPM:SM = 1:2), read-out: MIC",≤ 0.016 µg/mL
same,MIC,"[2]; ATCC10031, Concomitant (MEPM:SM = 1:4), read-out: MIC",≤ 0.016 µg/mL
same,MIC,"[2]; ATCC10031, Concomitant drug (MEPM:SM = 2:1), read-out: MIC",≤ 0.016 µg/mL
same,MIC,"[2]; ATCC10031, alone, read-out: MIC",≤ 0.016 µg/mL
same,MIC,[3]; ATCC9341,0.125 µg/mL
same,MIC,"[3]; ATCC9341, Concomitant (MEPM:SM = 1:1), read-out: MIC",≤ 0.016 µg/mL
same,MIC,"[3]; ATCC9341, Concomitant (MEPM:SM = 1:2), read-out: MIC",≤ 0.016 µg/mL
same,MIC,"[3]; ATCC9341, Concomitant (MEPM:SM = 1:4), read-out: MIC",≤ 0.016 µg/mL
same,MIC,"[3]; ATCC9341, Concomitant drug (MEPM:SM = 2:1), read-out: MIC",≤ 0.016 µg/mL
same,MIC,"[4]; IFO3451, Concomitant (MEPM:SM = 1:1), read-out: MIC",0.5 µg/mL
same,MIC,"[4]; IFO3451, Concomitant (MEPM:SM = 1:2), read-out: MIC",0.5 µg/mL
same,MIC,"[4]; IFO3451, Concomitant (MEPM:SM = 1:4), read-out: MIC",0.5 µg/mL
same,MIC,"[4]; IFO3451, Concomitant drug (MEPM:SM = 2:1), read-out: MIC",0.5 µg/mL
same,MIC,"[4]; IFO3451, alone, read-out: MIC",0.5 µg/mL
same,MIC,"[5]; TL2667, Concomitant (MEPM:SM = 1:1), read-out: MIC",4 µg/mL
same,MIC,"[5]; TL2667, Concomitant (MEPM:SM = 1:2), read-out: MIC",2 µg/mL
same,MIC,"[5]; TL2667, Concomitant (MEPM:SM = 1:4), read-out: MIC",2 µg/mL
same,MIC,"[5]; TL2667, Concomitant drug (MEPM:SM = 2:1), read-out: MIC",4 µg/mL
same,MIC,"[5]; TL2667, alone, read-out: MIC",4 µg/mL
same,MIC,"[6]; TL2666, Concomitant (MEPM:SM = 1:1), read-out: MIC",1 µg/mL
same,MIC,"[6]; TL2666, Concomitant (MEPM:SM = 1:2), read-out: MIC",1 µg/mL
same,MIC,"[6]; TL2666, Concomitant (MEPM:SM = 1:4), read-out: MIC",1 µg/mL
same,MIC,"[6]; TL2666, Concomitant drug (MEPM:SM = 2:1), read-out: MIC",1 µg/mL
same,MIC,"[6]; TL2666, alone, read-out: MIC",1 µg/mL
same,MIC,"[7]; ATCC19433, Concomitant (MEPM:SM = 1:1), read-out: MIC",1 µg/mL
same,MIC,"[7]; ATCC19433, Concomitant (MEPM:SM = 1:2), read-out: MIC",0.5 µg/mL
same,MIC,"[7]; ATCC19433, Concomitant (MEPM:SM = 1:4), read-out: MIC",0.25 µg/mL
same,MIC,"[7]; ATCC19433, Concomitant drug (MEPM:SM = 2:1), read-out: MIC",1 µg/mL
same,MIC,"[7]; ATCC19433, alone, read-out: MIC",4 µg/mL
same,MIC,"[8]; GN7919, Concomitant (MEPM:SM = 1:1), read-out: MIC",0.031 µg/mL
same,MIC,"[8]; GN7919, Concomitant (MEPM:SM = 1:2), read-out: MIC",0.031 µg/mL
same,MIC,"[8]; GN7919, Concomitant (MEPM:SM = 1:4), read-out: MIC",0.031 µg/mL
same,MIC,"[8]; GN7919, Concomitant drug (MEPM:SM = 2:1), read-out: MIC",0.031 µg/mL
same,MIC,"[8]; GN7919, alone, read-out: MIC",0.063 µg/mL
same,MIC,"[9]; NIHJJC2, Concomitant (MEPM:SM = 1:1), read-out: MIC",≤ 0.016 µg/mL
same,MIC,"[9]; NIHJJC2, Concomitant (MEPM:SM = 1:2), read-out: MIC",≤ 0.016 µg/mL
same,MIC,"[9]; NIHJJC2, Concomitant (MEPM:SM = 1:4), read-out: MIC",≤ 0.016 µg/mL
same,MIC,"[9]; NIHJJC2, Concomitant drug (MEPM:SM = 2:1), read-out: MIC",≤ 0.016 µg/mL
same,MIC,"[9]; NIHJJC2, alone, read-out: MIC",≤ 0.016 µg/mL
same,MIC,"[10]; ML1410, Concomitant (MEPM:SM = 1:1), read-out: MIC",≤ 0.016 µg/mL
same,MIC,"[10]; ML1410, Concomitant (MEPM:SM = 1:2), read-out: MIC",≤ 0.016 µg/mL
same,MIC,"[10]; ML1410, Concomitant (MEPM:SM = 1:4), read-out: MIC",≤ 0.016 µg/mL
same,MIC,"[10]; ML1410, Concomitant drug (MEPM:SM = 2:1), read-out: MIC",≤ 0.016 µg/mL
same,MIC,"[10]; ML1410, alone, read-out: MIC",0.031 µg/mL
same,MIC,[11]; [14],≤ 0.016 µg/mL
same,MIC,[11]; [15],≤ 0.016 µg/mL
same,MIC,[11]; [16],≤ 0.016 µg/mL
same,MIC,[11]; [17],≤ 0.016 µg/mL
same,MIC,"[11]; alone, read-out: MIC",≤ 0.016 µg/mL
same,MIC,"[12]; IAM1296, Concomitant (MEPM:SM = 1:1), read-out: MIC",≤ 0.016 µg/mL
same,MIC,"[12]; IAM1296, Concomitant (MEPM:SM = 1:2), read-out: MIC",≤ 0.016 µg/mL
same,MIC,"[12]; IAM1296, Concomitant (MEPM:SM = 1:4), read-out: MIC",≤ 0.016 µg/mL
same,MIC,"[12]; IAM1296, Concomitant drug (MEPM:SM = 2:1), read-out: MIC",0.063 µg/mL
same,MIC,"[12]; IAM1296, alone, read-out: MIC",1 µg/mL
same,MIC,[13]; [14],1 µg/mL
same,MIC,[13]; [15],1 µg/mL
same,MIC,[13]; [16],0.5 µg/mL
same,MIC,[13]; [17],2 µg/mL
same,MIC,"[13]; alone, read-out: MIC",32 µg/mL
"C[C@H]1[C@H](NC(=O)/C(=N\OC(C)(C)C(=O)O)c2csc(N)n2)C(=O)N1S(=O)(=O)O [AZT, aztreonam]",MIC,"[1]; GN7471, Concomitant (AZT:SM = 1:1), E. cloacae GN7471, read-out: MIC concomitant",4 µg/mL
same,MIC,"[1]; GN7471, drug alone, E. cloacae GN7471, read-out: MIC alone",16 µg/mL
same,MIC,"[2]; ATCC10031, Concomitant (AZT:SM = 1:1), K. pneumoniae ATCC10031, read-out: MIC concomitant",0.004 µg/mL
same,MIC,"[2]; ATCC10031, drug alone, K. pneumoniae ATCC10031, read-out: MIC alone",0.004 µg/mL
same,MIC,"[3]; ATCC9341, Concomitant (AZT:SM = 1:1), M. luteus ATCC9341, read-out: MIC concomitant",≤ 0.002 µg/mL
same,MIC,"[3]; ATCC9341, drug alone, M. luteus ATCC9341, read-out: MIC alone",16 µg/mL
same,MIC,"[4]; IFO3451, Concomitant (AZT:SM = 1:1), P. aeruginosa IFO3451, read-out: MIC concomitant",2 µg/mL
same,MIC,"[4]; IFO3451, drug alone, P. aeruginosa IFO3451, read-out: MIC alone",2 µg/mL
same,MIC,"[5]; TL2667, Concomitant (AZT:SM = 1:1), P. aeruginosa TL-2667, read-out: MIC concomitant",8 µg/mL
same,MIC,"[5]; TL2667, drug alone, P. aeruginosa TL-2667, read-out: MIC alone",2 µg/mL
same,MIC,"[6]; TL2666, Concomitant (AZT:SM = 1:1), P. aeruginosa TL-2666, read-out: MIC concomitant",8 µg/mL
same,MIC,"[6]; TL2666, drug alone, P. aeruginosa TL-2666, read-out: MIC alone",2 µg/mL
same,MIC,"[7]; ATCC19433, Concomitant (AZT:SM = 1:1), E. faecalis ATCC19433, read-out: MIC concomitant",1 µg/mL
same,MIC,"[7]; ATCC19433, drug alone, E. faecalis ATCC19433, read-out: MIC alone",> 32 µg/mL
same,MIC,"[8]; GN7919, Concomitant (AZT:SM = 1:1), P. vulgaris GN7919, read-out: MIC concomitant",0.25 µg/mL
same,MIC,"[8]; GN7919, drug alone, P. vulgaris GN7919, read-out: MIC alone",0.125 µg/mL
same,MIC,"[9]; NIHJJC2, Concomitant (AZT:SM = 1:1), E. coli NIHJ JC-2, read-out: MIC concomitant",0.063 µg/mL
same,MIC,"[9]; NIHJJC2, drug alone, E. coli NIHJ JC-2, read-out: MIC alone",0.063 µg/mL
same,MIC,"[10]; ML1410, Concomitant (AZT:SM = 1:1), E. coli ML1410, read-out: MIC concomitant",0.063 µg/mL
same,MIC,"[10]; ML1410, drug alone, E. coli ML1410, read-out: MIC alone",0.125 µg/mL
same,MIC,"[11]; Concomitant (AZT:SM = 1:1), Str. pyogenes Cook, read-out: MIC concomitant",0.004 µg/mL
same,MIC,"[11]; drug alone, Str. pyogenes Cook, read-out: MIC alone",16 µg/mL
same,MIC,"[12]; IAM1296, Concomitant (AZT:SM = 1:1), S. epidermidis IAM1296, read-out: MIC concomitant",0.031 µg/mL
same,MIC,"[12]; IAM1296, drug alone, S. epidermidis IAM1296, read-out: MIC alone",> 32 µg/mL
same,MIC,"[13]; Concomitant (AZT:SM = 1:1), S. aureus SP-7928 (homo-MRSA), read-out: MIC concomitant",2 µg/mL
same,MIC,"[13]; drug alone, S. aureus SP-7928 (homo-MRSA), read-out: MIC alone",> 32 µg/mL
